Assay results from patent US12344899B2, “Compositions and methods for therapeutics prescreening” (TECHNION RESEARCH & DEVELOPMENT FOUNDATION LIMITED, priority 2014, dated 2025).
Entries after “also recorded” stand apart in the source; their conditions may differ.

Experiments:
[1] = system: 4T1 breast cancer primary tumor; test: Barcoded nanoparticles with different drugs injected simultaneously i.v.; barcode levels in live/dead tumor cells (FIG. 8); assay type: in vivo, BALB/c mice; settings: for therapeutic effect rated from barcode distribution / drug barcode levels in the dead cells in comparison to the live cells: tumor biopsy 48 hours later; for therapeutic effect rated from barcode distribution: FIGS. 8A-E; for drug barcode levels in the dead cells in comparison to the live cells: cells sorted live/dead
Protocol: Barcoded nanoparticles containing control compounds or different drugs: placebo (A), caffeine (B), Cisplatin (C), Doxorubicin (D) and Gemcitabine (E), were injected simultaneously intravenously to BALB/c mice bearing a primary tumor in the hind thigh. 48 hours later, enabling the particle to accumulate in the tumor and perform the therapeutic activity, a biopsy was taken from the tumor. The biopsy tissue was then dissociated into a single-cell suspension, and the cells were screened according to their viability (live/dead). […] (F) The potency of the drugs was calculated by dividing the number of barcodes extracted from dead cells by the number of barcodes extracted from live cells for each drug. The values are presented in logarithmic scale.
In vivo transfection: 100 μl of 10^6cells/ml of 4T1 (breast cancer) was injected subcutaneous to 10 weeks balb/c female mice. About […] later (when the primary tumor was massive enough), 100 μl of liposome solution was injected intravenous. 36 hrs later, the mouse was sacrificed and its organs (+tumor) were taken in ice for further steps.
In the present study, ovarian tumors are expanded in hESC teratomas in SCID/beige mice, as previously described (Burgos-Ojeda, ibid.). Barcoded nanoparticles loaded with anti-cancer drugs are administered intravenously. Evaluation of the therapeutic task of the nanoparticle is evaluated after 48 hours which enables accumulation in the tumor and carrying out a therapeutic task. […] Post-mortem histological evaluation of the tissue is used to study the tumor bio-distribution. A biopsy sample is then dissociated into a single-cell suspension and the cells are sorted, using antibodies, according to cell subpopulation (including, CD45, CD11B, F4/80, CD13, REST) and viability (live/dead).
Barcoded nanoparticles containing five different drugs or control compounds (FIG. 8 depicts Placebo, Caffeine, Cisplatin, Doxorubicin and Gemcitabine), were injected simultaneously intravenously to BALB/c mice bearing a primary tumor in the hind thigh. 48 hours later, a biopsy was taken from the tumor. The biopsy tissue was then dissociated into a single-cell suspension, and the cells were screened according to their viability (live/dead).

4T1 breast cancer tumor = test: Therapeutic treatment validating the barcoding analysis (FIG. 9); assay type: in vivo, mice; settings: for proliferation index (anti-Ki67 immunohistochemistry): tumors extracted 24 days after starting treatment, 125 mg/kg Gemcitabine i.v. weekly
Text: FIG. 9A-D. Therapeutic efficacy based on barcoding analysis. FIGS. 9A-B and D are bar graphs comparing tumor volume change between different therapeutic groups. Each group got a weekly dose of chemo drug Doxorubicin, Cisplatin, or Gemcitabine. The control group got saline. Representative tumor dimensions of each group. The tumor was extracted […] after starting the treatment. Tumor/Body weight of each group.
To validate the barcoding analysis of the three chemotherapeutic drugs—Doxorubicin, Cisplatin and Gemcitabine, therapeutic treatment was conducted. The experiment included 4 groups, each containing 6 mice. Each group was treated with single drug for 24 days, starting 10 days post tumor induction. Each dose was given intravenous once a week. Each group was treated with either 5 mg/kg of Doxorubicin, 6 mg/kg of Cisplatin, 125 mg/kg of Gemcitabine or 100 μl of saline as a control. Tumors volumes were measured with caliper and calculated as length/2*(width)^2. […] 24 days after starting the treatment, the tumor of each mouse was extracted for further analysis. […] The tumor weight parameter reflects the effectiveness of the drug to inhibit and damage the tumor growth. The body weight parameter reflects the influence of the drug on the body or how severe are the side effects of the drug. […] To check differences in the tissue level between the different groups, all the tumors were studied histologically. Tissue slides from the tumors were stained with hematoxylin and eosin. […] Additionally, tissue slides were immunohistochemically stained with rabbit monoclonal anti-Ki67 antibody (SP6; Thermo Scientific, Fremont, Calif.) to determine proliferation index (not shown).

[2] = 5 mg/kg Doxorubicin, 6 mg/kg Cisplatin

## Cn1c(=O)c2c(ncn2C)n(C)c1=O [Caffeine]
[1]; drug in barcoded nanoparticles
  therapeutic effect rated from barcode distribution: almost no effect

## N.N.[Cl][Pt][Cl] [Cisplatin]
4T1 breast cancer tumor; [2]
  proliferation index (anti-Ki67 immunohistochemistry): 65%
[1]; drug in barcoded nanoparticles
  therapeutic effect rated from barcode distribution: clear therapeutic effect
[1]
  drug barcode levels in the dead cells in comparison to the live cells: Elevated levels

## COc1cccc2c1C(=O)c1c(O)c3c(c(O)c1C2=O)C[C@@](O)(C(=O)CO)C[C@@H]3O[C@H]1C[C@H](N)[C@H](O)[C@H](C)O1 [Doxorubicin]
4T1 breast cancer tumor; [2]
  proliferation index (anti-Ki67 immunohistochemistry): 90%
[1]; drug in barcoded nanoparticles
  therapeutic effect rated from barcode distribution: clear therapeutic effect

## Nc1ccn([C@@H]2O[C@H](CO)[C@@H](O)C2(F)F)c(=O)n1 [Gemcitabine]
4T1 breast cancer tumor; at sacrifice, FIG. 9(C), weekly i.v. dosing
  tumor/body weight ratio: minimum tumor/body weight ratio
4T1 breast cancer tumor; i.v. once a week for 24 days, 5 mg/kg Doxorubicin, 6 mg/kg Cisplatin, 125 mg/kg Gemcitabine, FIG. 9(A)
  tumor volume change / tumor growth: significantly attenuated the growth of the tumors
4T1 breast cancer tumor; [2]
  proliferation index (anti-Ki67 immunohistochemistry): 40%
[1]; drug in barcoded nanoparticles, 48 hours, FIG. 8(E)
  barcodes accumulated in the dead cells, more compare to the live cells: 6,000
[1]; drug in barcoded nanoparticles
  therapeutic effect rated from barcode distribution: more effective than cisplatin; also recorded: most efficient drug
[1]
  drug barcode levels in the dead cells in comparison to the live cells: Elevated levels
